Source: patent publication US8865734B2 (priority 2010, dated 2014)
≈ marks a conversion by molar mass, not a printed value.

Key:
[1] = test system: M. tuberculosis inside the host macrophage; test: QIM: Quantification of Intracellular Mycobacteria (intracellular growth assay, phenotypic cell-based); details: Mycobacterium tuberculosis; MIC, 80% bacterial growth inhibition; intracellular growth; read-out: QIM
Outline: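 Phenotypic high-content assay measuring M. tuberculosis multiplication inside host macrophages, run as dose response. MIC is the minimum compound concentration giving 80% bacterial growth inhibition.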

[2] = test system: in vitro grown Mycobacteria (M. tuberculosis); test: QUM: Quantification of in vitro grown Mycobacteria (in vitro growth fluorescence assay); assay type: cell-based; details: Mycobacterium tuberculosis; MIC, 80% bacterial growth inhibition; in vitro growth; read-out: QUM
Outline: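 Mycobacterium tuberculosis grown in vitro was quantified by fluorescence across compound dose responses. MIC is defined as the minimum concentration producing 80% growth inhibition.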

| SMILES | melting point | MIC [1] | MIC [2] |
| --- | --- | --- | --- |
| CCc1nc2cc(C)ccn2c1C(=O)NCc1ccc(N2CCOCC2)cc1 [Compound 68, 2-Ethyl-7-methyl-N-(4-morpholinobenzyl)imidazo[1,2-a]pyridine-3-carboxamide] | 190 °C | < 1 µM | 1 to 20 µM (≈ 0.378 to 7.57 µg/mL) |
| CCc1nc2cc(C)ccn2c1C(=O)NCc1ccc2ccccc2c1 [Compound 69, 2-Ethyl-7-methyl-N-(naphthalen-2-ylmethyl)imidazo[1,2-a]pyridine-3-carboxamide] | 192 °C | < 1 µM | 1 to 20 µM (≈ 0.343 to 6.87 µg/mL) |
| CCc1nc2cc(Cl)ccn2c1C(=O)NCc1ccc(N2CCOCC2)cc1 [Compound 89, 7-Chloro-2-ethyl-N-(4-morpholinobenzyl)imidazo[1,2-a]pyridine-3-carboxamide] | 195 °C | 1 to 20 µM (≈ 0.399 to 7.98 µg/mL) | < 1 µM |
| CCc1nc2ccc(Cl)cn2c1C(=O)NCc1ccc(C#N)cc1 [Compound 146, 6-Chloro-N-(4-cyanobenzyl)-2-ethylimidazo[1,2-a]pyridine-3-carboxamide] | 223 to 224 °C | 1 to 20 µM (≈ 0.339 to 6.78 µg/mL) | > 20 µM |
| CCc1nc2ccc(Cl)cn2c1C(=O)NCc1ccc(C(F)(F)F)cc1 [Compound 147, 6-Chloro-2-ethyl-N-(4-(trifluoromethyl)benzyl)imidazo[1,2-a]pyridine-3-carboxamide] | 179 to 180 °C | < 1 µM | < 1 µM |
| CCc1nc2cc(Cl)ccn2c1C(=O)NCc1ccc(C(F)(F)F)cc1 [Compound 148, 7-Chloro-2-ethyl-N-(4-(trifluoromethyl)benzyl)imidazo[1,2-a]pyridine-3-carboxamide] | 196.2 to 196.9 °C | < 1 µM | < 1 µM |
| CCc1nc2cnccn2c1C(=O)NCc1ccc(OC(F)(F)F)cc1 [Compound 155, 2-Ethyl-N-(4-(trifluoromethoxy)benzyl)imidazo[1,2-a]pyrazine-3-carboxamide] | 176 to 177 °C | > 20 µM | > 20 µM |
| CCc1nc2c[n+]([O-])ccn2c1C(=O)NCc1ccc(OC(F)(F)F)cc1 [Compound 156, 2-Ethyl-3-((4-(trifluoromethoxy)benzyl)carbamoyl)imidazo[1,2-a]pyrazine 7-oxide] | 215 to 216 °C | > 20 µM | > 20 µM |
| CCc1nc2ccc(Cl)cn2c1C(=O)NCCc1ccc(OC)cc1 [Compound 157, 6-Chloro-2-ethyl-N-(4-methoxyphenethyl)imidazo[1,2-a]pyridine-3-carboxamide] | 129 to 130 °C | < 1 µM | < 1 µM |
| CCc1nc2ccc(Cl)cn2c1C(=O)NCCc1ccc(Cl)cc1 [Compound 158, 6-Chloro-N-(4-chlorophenethyl)-2-ethylimidazo[1,2-a]pyridine-3-carboxamide] | 158 to 159 °C | < 1 µM | < 1 µM |
| CCc1nc2c[n+]([O-])ccn2c1C(=O)NCc1ccc(-c2ccc(Cl)cc2)cc1 [Compound 160, 3-(((4′-Chloro-[1,1′-biphenyl]-4-yl)methyl)carbamoyl)-2-ethylimidazo[1,2-a]pyrazine 7-oxide] | 238 °C | > 20 µM | > 20 µM |
| CCc1nc2ccc(Cl)cn2c1C(=O)NCc1ccc(N2CCC(CO)CC2)cc1 [Compound 279, 6-Chloro-2-ethyl-N-(4-(4-(hydroxymethyl)piperidin-1-yl)benzyl)imidazo[1,2-a]pyridine-3-carboxamide] | 161.1 °C | – | > 20 µM |
| CCc1nc2cc(Cl)ccn2c1C(=O)NCc1ccc(N2CCC(c3ccccc3)CC2)cc1 [Compound 283, 7-Chloro-2-ethyl-N-(4-(4-phenylpiperidin-1-yl)benzyl)imidazo[1,2-a]pyridine-3-carboxamide] | 164.5 °C | – | < 1 µM |
| CCc1nc2ccc(Cl)cn2c1C(=O)NCc1ccc(N2CCC(c3ccccc3)CC2)cc1 [Compound 284, 6-Chloro-2-ethyl-N-(4-(4-phenylpiperidin-1-yl)benzyl)imidazo[1,2-a]pyridine-3-carboxamide] | 138.2 °C | – | < 1 µM |
| CCc1nc2ccccn2c1C(=O)NCc1ccc(N2CCC(c3ccc(OC(F)(F)F)cc3)CC2)cc1 [Compound 288, 2-Ethyl-N-(4-(4-(4-(trifluoromethoxy)phenyl)piperidin-1-yl)benzyl)imidazo[1,2-a]pyridine-3-carboxamide] | 146 °C | – | < 1 µM |
| CCc1nc2cc(Cl)ccn2c1C(=O)NCc1ccc(N2CCC(Cc3ccccc3)CC2)cc1 [Compound 294, N-(4-(4-Benzylpiperidin-1-yl)benzyl)-7-chloro-2-ethylimidazo[1,2-a]pyridine-3-carboxamide] | 63.8 °C | – | 1 to 20 µM (≈ 0.487 to 9.74 µg/mL) |

| SMILES | melting point | MIC [1] | MIC [2] |
| --- | --- | --- | --- |
| CCc1nc2ccc(Cl)cn2c1C(=O)NCc1ccc(N2CCC(COc3ccc(OC(F)(F)F)cc3)CC2)cc1 [Compound 298, 6-chloro-2-ethyl-N-(4-(4-((4-(trifluoromethoxy)phenoxy)methyl)piperidin-1-yl)benzyl)imidazo[1,2-a]pyridine-3-carboxamide] | 183.6 °C | – | < 1 µM |
| CCc1nc2cc(Cl)ccn2c1C(=O)NCc1ccc(N2CCC(COc3ccc(OC(F)(F)F)cc3)CC2)cc1 [Compound 299, 7-Chloro-2-ethyl-N-(4-(4-((4-(trifluoromethoxy)phenoxy)methyl)piperidin-1-yl)benzyl)imidazo[1,2-a]pyridine-3-carboxamide] | 189.5 °C | – | < 1 µM |
| CCc1nc2c(OC(F)F)cccn2c1C(=O)NCc1ccc(N2CCN(c3ccc(F)cc3)CC2)cc1 [Compound 304, 8-(Difluoromethoxy)-2-ethyl-N-(4-(4-(4-fluorophenyl)piperazin-1-yl)benzyl)imidazo[1,2-a]pyridine-3-carboxamide] | 186.3 °C | – | < 1 µM |
| CCc1nc2ccc(C)cn2c1C(=O)NCc1ccc(N2CCN(c3ccc(F)cc3)CC2)cc1 [Compound 308, 2-Ethyl-N-(4-(4-(4-fluorophenyl)piperazin-1-yl)benzyl)-6-methylimidazo[1,2-a]pyridine-3-carboxamide] | 187.6 °C | – | < 1 µM |
| CCc1nc2c(OC(F)F)cccn2c1C(=O)NCc1ccc(N2CCOCC2)cc1 [Compound 319, 8-(Difluoromethoxy)-2-ethyl-N-(4-morpholinobenzyl)imidazo[1,2-a]pyridine-3-carboxamide] | 163 °C | – | 1 to 20 µM (≈ 0.43 to 8.61 µg/mL) |
| CCc1nc2ccc(C(F)(F)F)cn2c1C(=O)NCc1ccc(N2CCOCC2)cc1 [Compound 321, 2-Ethyl-N-(4-morpholinobenzyl)-6-(trifluoromethyl)imidazo[1,2-a]pyridine-3-carboxamide] | 207.6 °C | – | < 1 µM |
| CCc1nc2cc(C(F)(F)F)ccn2c1C(=O)NCc1ccc(N2CCOCC2)cc1 [Compound 322, 2-Ethyl-N-(4-morpholinobenzyl)-7-(trifluoromethyl)imidazo[1,2-a]pyridine-3-carboxamide] | 174.1 °C | – | 1 to 20 µM (≈ 0.432 to 8.65 µg/mL) |
| CCc1nc2c(C(F)(F)F)cccn2c1C(=O)NCc1ccc(N2CCOCC2)cc1 [Compound 323, 2-Ethyl-N-(4-morpholinobenzyl)-8-(trifluoromethyl)imidazo[1,2-a]pyridine-3-carboxamide] | 200.6 °C | – | 1 to 20 µM (≈ 0.432 to 8.65 µg/mL) |
| CCc1nc2cc(Cl)ccn2c1C(=O)NCc1ccc(N2CCC(c3ccc(Cl)cc3)CC2)cc1 [Compound 338, 7-Chloro-N-(4-(4-(4-chlorophenyl)piperidin-1-yl)benzyl)-2-ethylimidazo[1,2-a]pyridine-3-carboxamide] | 177 °C | – | < 1 µM |
| CCc1nc2ccc(Cl)cn2c1C(=O)NCc1ccc2oc(C3CCCCC3)nc2c1 [Compound 339, 6-Chloro-N-((2-cyclohexylbenzo[d]oxazol-5-yl)methyl)-2-ethylimidazo[1,2-a]pyridine-3-carboxamide] | 169.7 °C | – | < 1 µM |
| CCc1nc2cc(Cl)ccn2c1C(=O)NCc1ccc2oc(C3CCCCC3)nc2c1 [Compound 340, 7-Chloro-N-((2-cyclohexylbenzo[d]oxazol-5-yl)methyl)-2-ethylimidazo[1,2-a]pyridine-3-carboxamide] | 163 °C | – | < 1 µM |
| CCc1nc2ccc(Cl)cn2c1C(=O)NCc1ccc(N2CCC(O)(c3ccc(F)cc3)CC2)cc1 [Compound 341, 6-Chloro-2-ethyl-N-(4-(4-(4-fluorophenyl)-4-hydroxypiperidin-1-yl)benzyl)imidazo[1,2-a]pyridine-3-carboxamide] | 173.5 °C | – | < 1 µM |
| CCc1nc2cc(Cl)ccn2c1C(=O)NCc1ccc(N2CCC(O)(c3ccc(F)cc3)CC2)cc1 [Compound 342, 7-Chloro-2-ethyl-N-(4-(4-(4-fluorophenyl)-4-hydroxypiperidin-1-yl)benzyl)imidazo[1,2-a]pyridine-3-carboxamide] | 199 °C | – | < 1 µM |
| CCc1nc2ccc(Cl)cn2c1C(=O)NCc1ccc(N2CCC(C(N)=O)CC2)cc1 [Compound 343, N-(4-(4-Carbamoylpiperidin-1-yl)benzyl)-6-chloro-2-ethylimidazo[1,2-a]pyridine-3-carboxamide] | 257.5 °C | – | < 1 µM |
| CCc1nc2cc(Cl)ccn2c1C(=O)NCc1ccc(N2CCC(C(N)=O)CC2)cc1 [Compound 344, N-(4-(4-Carbamoylpiperidin-1-yl)benzyl)-7-chloro-2-ethylimidazo[1,2-a]pyridine-3-carboxamide] | 244 °C | – | 1 to 20 µM (≈ 0.44 to 8.8 µg/mL) |
| CCc1nc2ccc(Cl)cn2c1C(=O)NCc1ccc(N2CCOCC2)c(Cl)c1 [Compound 349, 6-Chloro-N-(3-chloro-4-morpholinobenzyl)-2-ethylimidazo[1,2-a]pyridine-3-carboxamide] | 175.5 °C | – | < 1 µM |
